From US8399681B2, “Substituted aminothiazolone indazoles as estrogen related receptor-alpha modulators” (Janssen Pharmaceutica NV, priority 2009, dated 2013) come the findings set out here.

The experiment addresses T1, ERR1 (also known as ERR-α or ERR-1) (Homo sapiens, UniProt P11474).
T1 sequence (P11474 193-421 limits assumed): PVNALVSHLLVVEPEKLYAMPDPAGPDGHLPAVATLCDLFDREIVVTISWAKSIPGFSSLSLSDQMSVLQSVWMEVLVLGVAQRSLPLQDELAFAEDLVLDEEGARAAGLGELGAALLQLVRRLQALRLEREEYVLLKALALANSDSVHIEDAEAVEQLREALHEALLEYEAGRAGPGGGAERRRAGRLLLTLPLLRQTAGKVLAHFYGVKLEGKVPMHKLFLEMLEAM
Description: TR-FRET assay (disruption of co-activator peptide binding). The class given is biochemical. As to conditions: 6His-tagged ERR1 LBD, GST-hSRC2 co-activator polypeptide; average of 3 independent experiments. The essentials:
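His6-ERR1 LBD (6 nM) with GST-SRC-2 peptide (6 nM), anti-GST Eu cryptate (30 nM) and anti-His XL665 (7.5 nM) in Tris pH 8/KCl/DTT/BSA buffer, equilibrated 4-18 h at 25 °C. Ex 340, em 615/665 nm; hyperbolic dose-response fit, mean of 3 experiments.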
For orientation: TR-FRET usually uses a lanthanide donor and a delayed reading to cut background.

By EC50 is commonly meant the concentration that produces a half-maximal response. A higher EC50 goes with a less potent agent. With `CCOC(=O)C1(N)CCN(C2=NC(=O)/C(=C/c3ccc4c(cnn4Cc4ccc(Cl)cc4C(F)(F)F)c3)S2)CC1` [Example 156, 4-Amino-1-{5-[1-(4-chloro-2-trifluoromethyl-benzyl)-1H-indazol-5-ylmethylene]-4-oxo-4,5-dihydro-thiazol-2-yl}-piperidine-4-carboxylic acid ethyl ester], the EC50 was found to be 58 nM. Under `O=C1N=C(N2CCC(n3cccn3)CC2)S/C1=C\c1ccc2c(cnn2Cc2ccc(Cl)cc2C(F)(F)F)c1` [Example 157, 5-[1-(4-Chloro-2-trifluoromethyl-benzyl)-1H-indazol-5-ylmethylene]-2-(4-pyrazol-1-yl-piperidin-1-yl)-thiazol-4-one] stands 35 nM. In turn, `O=C1N=C(N2CCC(n3cncn3)CC2)S/C1=C\c1ccc2c(cnn2Cc2ccc(Cl)cc2C(F)(F)F)c1` [Example 158, 5-[1-(4-Chloro-2-trifluoromethyl-benzyl)-1H-indazol-5-ylmethylene]-2-(4-[1,2,4]triazol-1-yl-piperidin-1-yl)-thiazol-4-one] had a half-maximal effective concentration (EC50) of 32 nM. On to `O=C1N=C(N2CCC(n3ccnc3)CC2)S/C1=C\c1ccc2c(cnn2Cc2ccc(Cl)cc2C(F)(F)F)c1` [Example 159, 5-[1-(4-Chloro-2-trifluoromethyl-benzyl)-1H-indazol-5-ylmethylene]-2-(4-imidazol-1-yl-piperidin-1-yl)-thiazol-4-one], for which the concentration for a half-maximal effect (EC50) is 36 nM.

In the case of `CCNC(=O)NC1CCN(C2=NC(=O)/C(=C/c3ccc4c(cnn4Cc4ccc(C(F)(F)F)cc4C(F)(F)F)c3)S2)CC1` [Example 160, 1-(1-{5-[1-(2,4-Bis-trifluoromethyl-benzyl)-1H-indazol-5-ylmethylene]-4-oxo-4,5-dihydro-thiazol-2-yl}-piperidin-4-yl)-3-ethyl-urea], the EC50 was 22 nM. Under `CNC1CCCCN(C2=NC(=O)/C(=C/c3ccc4c(cnn4Cc4ccc(Cl)cc4C(F)(F)F)c3)S2)C1` (centres unmarked) [Example 161, 5-[1-(4-Chloro-2-trifluoromethyl-benzyl)-1H-indazol-5-ylmethylene]-2-(3-methylamino-azepan-1-yl)-thiazol-4-one] stands 24.8 nM.

Regarding `O=C1N=C(N2CCCC2)S/C1=C\c1ccc2c(cnn2Cc2ccc(Cl)cc2C(F)(F)F)c1` [Example 162, 5-[1-(4-Chloro-2-trifluoromethyl-benzyl)-1H-indazol-5-ylmethylene]-2-pyrrolidin-1-yl-thiazol-4-one], it took 27 nM to reach a half-maximal effect (EC50). The same measure for `CN(C)CC1(O)CCN(C2=NC(=O)/C(=C/c3ccc4c(cnn4Cc4ccc(Cl)cc4C(F)(F)F)c3)S2)CC1` [Example 163, 5-[1-(4-Chloro-2-trifluoromethyl-benzyl)-1H-indazol-5-ylmethylene]-2-(4-dimethylaminomethyl-4-hydroxy-piperidin-1-yl)-thiazol-4-one]: 26 nM; for `O=C1N=C(N2CCC(O)(Cn3ccnc3)CC2)S/C1=C\c1ccc2c(cnn2Cc2ccc(Cl)cc2C(F)(F)F)c1` [Example 164, 5-[1-(4-Chloro-2-trifluoromethyl-benzyl)-1H-indazol-5-ylmethylene]-2-(4-hydroxy-4-imidazol-1-ylmethyl-piperidin-1-yl)-thiazol-4-one]: 12 nM; for `CCC1(O)CCCN(C2=NC(=O)/C(=C/c3ccc4c(cnn4Cc4ccc(Cl)cc4C(F)(F)F)c3)S2)C1` (centres unmarked) [Example 165, 5-[1-(4-Chloro-2-trifluoromethyl-benzyl)-1H-indazol-5-ylmethylene]-2-(3-ethyl-3-hydroxy-piperidin-1-yl)-thiazol-4-one]: 18 nM. As for `O=C1N=C(N2CCC(N3CCCC(O)C3)CC2)S/C1=C\c1ccc2c(cnn2Cc2ccc(Cl)cc2C(F)(F)F)c1` (centres unmarked) [Example 166, 5-[1-(4-Chloro-2-trifluoromethyl-benzyl)-1H-indazol-5-ylmethylene]-2-(3-hydroxy-[1,4′]bipiperidinyl-1′-yl)-thiazol-4-one], it took 19 nM to reach a half-maximal effect (EC50). The same measure for `O=C1N=C(N2CCC3(CC2)NCNC3=O)S/C1=C\c1ccc2c(cnn2Cc2ccc(Cl)cc2C(F)(F)F)c1` [Example 167, 8-{5-[1-(4-Chloro-2-trifluoromethyl-benzyl)-1H-indazol-5-ylmethylene]-4-oxo-4,5-dihydro-thiazol-2-yl}-1,3,8-triaza-spiro[4.5]decan-4-one]: 16 nM; for `CN1CCN(C2=NC(=O)/C(=C/c3ccc4c(cnn4Cc4ccc(C(F)(F)F)cc4C(F)(F)F)c3)S2)CC1CCO` (centres unmarked) [Example 168, 5-[1-(2,4-Bis-trifluoromethyl-benzyl)-1H-indazol-5-ylmethylene]-2-[3-(2-hydroxy-ethyl)-4-methyl-piperazin-1-yl]-thiazol-4-one]: 9 nM. Molecule `O=C1N=C(N2CCn3cccc3C2)S/C1=C\c1ccc2c(cnn2Cc2ccc(C(F)(F)F)cc2C(F)(F)F)c1` [Example 169, 5-[1-(2,4-Bis-trifluoromethyl-benzyl)-1H-indazol-5-ylmethylene]-2-(3,4-dihydro-1H-pyrrolo[1,2-a]pyrazin-2-yl)-thiazol-4-one] had a half-maximal effective concentration (EC50) of 225 nM. With `CC1C(=O)N(C)CCN1C1=NC(=O)/C(=C/c2ccc3c(cnn3Cc3ccc(C(F)(F)F)cc3C(F)(F)F)c2)S1` (centres unmarked) [Example 170, 4-{5-[1-(2,4-Bis-trifluoromethyl-benzyl)-1H-indazol-5-ylmethylene]-4-oxo-4,5-dihydro-thiazol-2-yl}-1,3-dimethyl-piperazin-2-one], the midpoint of the response, the EC50, lay at 30 nM. The same measure for `CN(C)CC1CN(C2=NC(=O)/C(=C/c3ccc4c(cnn4Cc4ccc(C(F)(F)F)cc4C(F)(F)F)c3)S2)CCO1` (centres unmarked) [Example 171, 5-[1-(2,4-Bis-trifluoromethyl-benzyl)-1H-indazol-5-ylmethylene]-2-(2-dimethylaminomethyl-morpholin-4-yl)-thiazol-4-one]: 38 nM; for `O=C1N=C(N2CCO[C@@H](CO)C2)S/C1=C\c1ccc2c(cnn2Cc2ccc(C(F)(F)F)cc2C(F)(F)F)c1` [Example 172, 5-[1-(2,4-Bis-trifluoromethyl-benzyl)-1H-indazol-5-ylmethylene]-2(R)-(2-hydroxymethyl-morpholin-4-yl)-thiazol-4-one]: 14 nM. Under `O=C1N=C(N2CCC(C(=O)NS(=O)(=O)N3CCCC3)CC2)S/C1=C\c1ccc2c(cnn2Cc2ccc(C(F)(F)F)cc2C(F)(F)F)c1` [Example 173, Pyrrolidine-1-sulfonic acid (1-{5-[1-(2,4-bis-trifluoromethyl-benzyl)-1H-indazol-5-ylmethylene]-4-oxo-4,5-dihydro-thiazol-2-yl}-piperidine-4-carbonyl)-amide] stands 71 nM; under `O=C1N=C(N2CCC(C(=O)NS(=O)(=O)N3CCCC3)CC2)S/C1=C\c1ccc2c(cnn2Cc2ccc(Cl)cc2C(F)(F)F)c1` [Example 174, Pyrrolidine-1-sulfonic acid (1-{5-[1-(4-chloro-2-trifluoromethyl-benzyl)-1H-indazol-5-ylmethylene]-4-oxo-4,5-dihydro-thiazol-2-yl}-piperidine-4-carbonyl)-amide], 58.1 nM. Under `O=C1N=C(N2CCO[C@H](CO)C2)S/C1=C\c1ccc2c(c1)c(I)nn2Cc1ccc(C(F)(F)F)cc1C(F)(F)F` [Example 175, 5-[1-(2,4-Bis-trifluoromethyl-benzyl)-3-iodo-1H-indazol-5-ylmethylene]-2(S)-(2-hydroxymethyl-morpholin-4-yl)-thiazol-4-one] stands 5 nM. As for `O=C1N=C(N2CCC(C(=O)O)CC2)S/C1=C\c1ccc2c(cnn2Cc2ccc(F)cc2C(F)(F)F)c1` [Example 176, 1-{5-[1-(4-Fluoro-2-trifluoromethyl-benzyl)-1H-indazol-5-ylmethylene]-4-oxo-4,5-dihydro-thiazol-2-yl}-piperidine-4-carboxylic acid], a half-maximal response (EC50) required 139 nM. In turn, `O=C1N=C(N2CCO[C@H](CO)C2)S/C1=C\c1ccc2c(cnn2Cc2ccc(F)cc2C(F)(F)F)c1` [Example 177, 5-[1-(4-Fluoro-2-trifluoromethyl-benzyl)-1H-indazol-5-ylmethylene]-2-((2S)-2-hydroxymethyl-morpholin-4-yl)-thiazol-4-one] yielded an EC50 of 55 nM.

For the molecule `O=C1N=C(N2CCN[C@@H](CO)C2)S/C1=C\c1ccc2c(cnn2Cc2ccc(F)cc2C(F)(F)F)c1` [Example 178, 5-[1-(4-Fluoro-2-trifluoromethyl-benzyl)-1H-indazol-5-ylmethylene]-2-((3R)-3-hydroxymethyl-piperazin-1-yl)-thiazol-4-one], the concentration giving a half-maximal response (EC50) stood at 52 nM. As for `O=C1N=C(N2CCNC3(CC3)C2)S/C1=C\c1ccc2c(cnn2Cc2ccc(C(F)(F)F)cc2C(F)(F)F)c1` [Example 179, 5-[1-(2,4-Bis-trifluoromethyl-benzyl)-1H-indazol-5-ylmethylene]-2-(4,7-diaza-spiro[2.5]oct-7-yl)-thiazol-4-one], the EC50 was 17 nM.

Take `Cc1nn(Cc2ccc(C(F)(F)F)cc2C(F)(F)F)c2ccc(/C=C3\SC(N4CCO[C@H](CO)C4)=NC3=O)cc12` [Example 180, 5-[1-(2,4-Bis-trifluoromethyl-benzyl)-3-methyl-1H-indazol-5-ylmethylene]-2-(2-(S)-hydroxymethyl-morpholin-4-yl)-thiazol-4-one]: the EC50 was determined as 21 nM. `Cc1nn(Cc2ccc(Cl)cc2C(F)(F)F)c2ccc(/C=C3\SC(N4CCO[C@H](CO)C4)=NC3=O)cc12` [Example 181, 5-[1-(4-Chloro-2-trifluoromethyl-benzyl)-3-methyl-1H-indazol-5-ylmethylene]-2-(2-(S)-hydroxymethyl-morpholin-4-yl)-thiazol-4-one] registered an EC50 of 16 nM.
